Values of other authors as cited in patent US7250518B2, “Nicotinamide acids, amides, and their mimetics active as inhibitors of PDE4 isozymes” (Pfizer Inc., priority 2001, dated 2007).
Like-named read-outs stand apart in the source and are kept apart here.

How the values were obtained:
rhinorrhea = conditions: antigen-challenged pig
[1] = test system: dextran sulfate induced colitis; conditions: rat
TNF-α and IL-6 levels = conditions: 1 mg/kg/hr over 24 hours
[2] = test system: lipopolysaccharide-induced bowel erythrocyte extravasation; conditions: rats, i.p. 3× pretreatment
rheumatoid arthritis = conditions: 35 patients, t.i.d., placebo-controlled
[3] = test system: bone mineral density of femurs; conditions: serial oral administrations
[4] = test system: lipopolysaccharide-induced mesenteric blood flow fall; conditions: inhibiting lipopolysaccharide-induced mesenteric blood flow fall
[5] = test system: human peripheral blood mononuclear cells (HPBM); conditions: normal patients and subjects with atopic dermatitis
guinea-pig lung PDE4 = conditions: read-out: IC50 against guinea-pig lung PDE4
[6] = test system: high-affinity rolipram binding site (Sr)
[7] = in vivo
[8] = test system: antigen-induced lung eosinophilia, BAL eosinophilia, AHR; conditions: guinea-pig
inflammatory parameters = conditions: topical, bilaterally over eight days, twenty patients
TNF production = conditions: read-out: IC50 as an inhibitor of TNF production
psoriatic lesions = conditions: two double-blind studies versus vehicle
epidermal basal cells = conditions: primary culture
[9] = test system: keratomed psoriatic epidermis; conditions: over controls
[10] = test system: histamine- and antigen-induced bronchoconstriction, eosinophilia, AHR; conditions: guinea-pig
[11] = test system: antigen-induced bronchoconstriction; conditions: guinea-pig
[12] = test system: bronchoconstriction, BAL eosinophilia, AHR; conditions: in vivo
[13] = COPD patients, 15 mg b.i.d., week 6
[14] = oral 5, 10, and 15 mg b.id., week 2
canine tracheal PDE4 = conditions: at 100 nM
PDE4 in U937 cells = conditions: read-out: IC50 as PDE4 inhibitor in U937 cells
[15] = rat
[16] = test system: antigen-induced eosinophilia; conditions: rat
[17] = rat; remark: listed apart in the source
[18] = 54 subjects, doses up to 400 mg
[19] = test system: seratonin-induced bronchoconstriction; conditions: dog
[20] = test system: PHA stimulated normal PBMC; conditions: read-out: IC50, inhibition of PHA stimulated normal PBMC proliferation
[21] = test system: chronic relapsing experimental allergic encephalomyelitis; conditions: SJL mice
[22] = test system: PHA stimulated atopic dermatitis PBMC; conditions: read-out: IC50, inhibition of PHA stimulated atopic dermatitis PBMC proliferation
[23] = test system: experimental allergic encephalomyelitis; conditions: marmoset
[24] = test system: collagen II induced arthritis
[25] = test system: T-cell mediated hepatic failure
[26] = test system: croton oil-induced ear inflammation; conditions: mouse
[27] = test system: antigen-induced bronchospasm; conditions: rat
[28] = test system: in vitro guinea-pig models of asthma; conditions: read-out: IC50 in standard in vitro guinea-pig models of asthma
[29] = test system: late reactions to inhaled allergen; conditions: 9.5 days oral, 15 and 30 mg, bronchial asthma patients
[30] = test system: TNF release and lymphocyte proliferation; conditions: oral dose of 300 mg

CCCn1c(=O)c2c(C)nc(CC)n2c2nc(OC)ccc21 [Example D-22888]
Effect on rhinorrhea (rhinorrhea): inhibit rhinorrhea

CCCn1c(=O)c2[nH]cnc2n(-c2ccc(Cl)cc2)c1=O [LAS31025]
Effect in dextran sulfate induced colitis [1]: beneficial effects comparable to prednisolone

CC(=O)CCCCn1c(=O)c2c(ncn2C)n(C)c1=O [pentoxifylline]
IL-6 levels (TNF-α and IL-6 levels): significantly increased | TNF-α levels (TNF-α and IL-6 levels): significantly lowered | Effect on lipopolysaccharide-induced bowel erythrocyte extravasation [2]: reduces

COc1ccc(C(=O)Nc2c(Cl)cncc2Cl)cc1OC1CCCC1 [RP73401]
Clinical effect in rheumatoid arthritis (rheumatoid arthritis): positive trend towards clinical improvement

CCCCn1c(=O)c2c(ncn2CC(C)=O)n(CCCC)c1=O [debufylline]
Effect on lipopolysaccharide-induced bowel erythrocyte extravasation [2]: reduces

O=C(Nc1c(Cl)cncc1Cl)C(=O)c1cn(Cc2ccc(F)cc2)c2ccc(O)cc12 [AWD-12,281]
Activity in a rat model of allergic rhinitis (allergic rhinitis): active

CCCCn1c(=O)c2c(ncn2CC(C)=O)n(CCCC)c1=O [denbufylline]
Effect on bone mineral density of femurs [3]: inhibit the decrease in the bone mineral density | Potency relative to pentoxifylline [4]: 100 fold | Inhibition of the proliferation of HPBM [5]: concentration-related inhibition

CCOc1cc2cc(CO)c(CO)c(-c3ccnc(-n4nc(-c5cccnc5)c5ccccc5c4=O)c3)c2cc1OCC [Example T-2585]
IC50 (guinea-pig lung PDE4): 0.13 nM

COc1ccc(C(=O)Nc2c(Cl)cncc2Cl)cc1OC1CCCC1 [RP-73,401]
Affinity at the Sr [6]: high affinity | Emesis, nausea and vomiting [7]: elicit emesis | Inhibition of antigen-induced lung and BAL eosinophilia, EPO, PAF- and ozone-induced AHR, IL-5 induced pleural eosinophila [8]: active

COc1ccc(C2CNC(=O)NC2)cc1O[C@H]1C[C@@H]2CC[C@H]1C2 [atizoram]
Effect on inflammatory parameters (inflammatory parameters): effectively inhibit all of the inflammatory parameters tested

COc1ccc(C(CC(N)=O)N2C(=O)c3ccccc3C2=O)cc1OC1CCCC1 (centres unmarked) [Formula (0.0.32)]
IC50 (TNF production): 130 nM | IC50 (PDE4; read-out: IC50 as an inhibitor of PDE4): 0.042 nM

COc1ccc(CC2CNC(=O)N2)cc1OC1CCCC1 (centres unmarked) [Ro 20-1724]
Effect on psoriatic lesions (psoriatic lesions): improve psoriatic lesions without adverse systemic or cutaneous effects | Increase in cAMP concentrations (epidermal basal cells): three-fold | Increase in cAMP concentration [9]: 1395%

O=c1c2[nH]cnc2c2cccnc2n1-c1ccccc1 [KF17625]
Inhibition of histamine- and antigen-induced bronchoconstriction, PAF- and antigen-induced eosinophilia, AHR, bronchospasm [10]: activity

CCCn1c(=O)c2[nH]cnc2n(-c2ccc(Cl)cc2)c1=O [LAS-31025]
Inhibition of antigen-induced bronchoconstriction [11]: active

CCOc1cc2cc(CO)c(CO)c(-c3ccn(CCOC)c(=O)c3)c2cc1OCC [Example T-440]
Inhibition of early and late phase bronchoconstriction, BAL eosinophilia, ozone-induced AHR and airway epithelial injury [12]: activity

COc1ccc([C@]2(C#N)CC[C@@H](C(=O)O)CC2)cc1OC1CCCC1 [SB-207,499]
Affinity at the Sr [6]: comparatively low affinity | Improvement in trough FEV1 [13]: 11% | Maximum mean difference in trough FEV1 compared with placebo [13]: 160 mL | Change in trough FEV1 from placebo [14]: significant increases

COc1ccc(C(=O)Cc2c(Cl)c[n+]([O-])cc2Cl)c2c1OCCCCO2 [Formula (0.0.49)]
Inhibition of canine tracheal PDE4 (canine tracheal PDE4): almost complete inhibition

Cc1cc2c3c(c1)C(c1ccccc1)=N[C@@H](NC(=O)c1ccncc1)C(=O)N3CC2 [CI-1018]
IC50 (PDE4 in U937 cells): 1100 nM | Oral bioavailability [15]: 57% | Inhibition of antigen-induced eosinophilia [16]: active | ED50, oral potency [17]: 5 mg/kg | Adverse events [18]: no adverse events

COc1ccc(/C(C)=N/OC(N)=O)cc1OC1CCCC1 [WAY-PDA-641]
Inhibition of seratonin-induced bronchoconstriction [19]: active

COc1ccc(C2CNC(=O)C2)cc1OC1CCCC1 (centres unmarked) [rolipram]
IC50 [20]: 2600 nM | Effect on clinical signs and pathological changes [21]: ameliorates clinical signs and pathological changes | Effect in dextran sulfate induced colitis [1]: beneficial effects comparable to prednisolone | IC50 [22]: 280 nM | Inhibition of the proliferation of HPBM [5]: concentration-related inhibition | Effect on clinical signs [23]: suppress the appearance of clinical signs | Effect on appearance of arthritic symptoms ([24]; 2 mg/kg twice daily for five days before onset of arthritis): significantly delayed the appearance of arthritic symptoms | Effect on development of the disease ([24]; 3 mg/kg twice daily when arthritis was apparent): progression of severity was halted | IL-10 levels ([25]; 0.1 to 10 mg/kg i.p.): significantly elevates | Plasma activities of liver enzymes ALT, AST, and SDH ([25]; 0.1 to 10 mg/kg i.p.): dose-dependently inhibited | Plasma TNF-α and INF-γ concentrations ([25]; 0.1 to 10 mg/kg i.p. 30 minutes before concanavalin A or staphylococcal enterotoxin B): significantly reduce | Topical dose inhibiting croton oil-induced ear inflammation [26]: ≥ 0.03 mg per ear | Effect on lipopolysaccharide-induced bowel erythrocyte extravasation [2]: reduces

COc1ccc(CNc2c(C)noc2C)cc1OC1CCCC1 [RPR-132294]
Inhibition of antigen-induced bronchospasm [27]: activity

O=C(Nc1c(Cl)cncc1Cl)c1ccc(OC(F)F)c(OCC2CC2)c1 [Roflumilast]
IC50 [28]: 3.5 nM

COc1ccc(-c2nc3cnccc3o2)c2c1OC1(CCCC1)C2 [Formula (0.0.48)]
IC50 (PDE4; read-out: IC50 as PDE4 inhibitor): 2.5 nM

O=c1c2cccnc2n(-c2cccc([N+](=O)[O-])c2)c(=O)n1Cc1ccncc1 [RS-23,544]
Affinity at the Sr [6]: high affinity | Emesis, nausea and vomiting [7]: elicit emesis

COc1ccc(C2CNC(=O)NC2)cc1O[C@H]1C[C@@H]2CC[C@H]1C2 [CP-80,633]
Affinity at the Sr [6]: high affinity | Emesis, nausea and vomiting [7]: elicit emesis

O=c1c2c(ncn2Cc2cccnc2)c2cccnc2n1-c1ccccc1 [KF19514]
Inhibition of histamine- and antigen-induced bronchoconstriction, PAF- and antigen-induced eosinophilia, AHR, bronchospasm [10]: activity

COc1ccc([C@H](Cc2ccncc2)c2ccccc2)cc1OC1CCCC1 [CDP840]
Affinity at the Sr [6]: comparatively low affinity | Emesis, nausea and vomiting [7]: without any adverse events of nausea or headache | Effect on late reactions to inhaled allergen [29]: suppression of late reactions to inhaled allergen

Nc1nc2c([nH]1)c(=O)n(CC1CC1)c(=O)n2CC1CC1 [BRL-61,063]
Emesis, nausea and vomiting [7]: adverse events of nausea and vomiting

CCNc1ncn(Cc2ccc(OC)c(OC3CCCC3)c2)c2nc(C(C)C)nc1-2 [Example V-11294A]
Inhibition of antigen-induced bronchoconstriction [11]: active | Effect on LPS-stimulated ex vivo TNF release and PHA induced lymphocyte proliferation [30]: effective in reducing TNF levels and lymphocyte proliferation
